Data published in ChEMBL document CHEMBL5291721, “A preclinical secondary pharmacology resource illuminates target-adverse drug reaction associations of marketed drugs” (Nat Commun, 2023).

Experiments:
[1] = target: T1, Androgen receptor (Rattus norvegicus, UniProt P15207); format: functional
T1 sequence (P15207 whole entry): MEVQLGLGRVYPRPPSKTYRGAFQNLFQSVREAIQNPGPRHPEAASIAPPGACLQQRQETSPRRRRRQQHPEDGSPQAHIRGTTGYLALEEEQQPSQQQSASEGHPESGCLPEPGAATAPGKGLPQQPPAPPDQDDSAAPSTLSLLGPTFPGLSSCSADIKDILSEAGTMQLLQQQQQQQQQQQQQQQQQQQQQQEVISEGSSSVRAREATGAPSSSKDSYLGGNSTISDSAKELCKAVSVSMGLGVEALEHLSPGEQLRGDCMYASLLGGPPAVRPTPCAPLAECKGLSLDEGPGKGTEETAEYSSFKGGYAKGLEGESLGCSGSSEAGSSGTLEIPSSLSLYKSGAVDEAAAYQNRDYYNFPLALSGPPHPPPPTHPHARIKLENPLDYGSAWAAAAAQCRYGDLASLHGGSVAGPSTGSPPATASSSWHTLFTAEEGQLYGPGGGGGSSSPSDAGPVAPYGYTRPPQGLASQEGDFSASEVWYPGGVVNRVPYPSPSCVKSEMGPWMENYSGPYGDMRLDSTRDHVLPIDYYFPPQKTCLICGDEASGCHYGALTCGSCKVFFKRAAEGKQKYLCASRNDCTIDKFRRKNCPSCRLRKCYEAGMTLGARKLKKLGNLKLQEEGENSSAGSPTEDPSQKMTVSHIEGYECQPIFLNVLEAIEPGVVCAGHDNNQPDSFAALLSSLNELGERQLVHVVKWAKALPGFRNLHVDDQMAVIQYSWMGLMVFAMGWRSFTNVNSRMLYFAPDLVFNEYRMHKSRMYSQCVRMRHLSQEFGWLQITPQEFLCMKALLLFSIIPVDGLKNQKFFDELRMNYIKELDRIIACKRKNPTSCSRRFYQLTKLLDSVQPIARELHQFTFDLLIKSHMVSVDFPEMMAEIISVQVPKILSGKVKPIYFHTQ

[2] = target: T2, B1 bradykinin receptor (Homo sapiens, UniProt P46663)
T2 sequence (P46663 whole entry): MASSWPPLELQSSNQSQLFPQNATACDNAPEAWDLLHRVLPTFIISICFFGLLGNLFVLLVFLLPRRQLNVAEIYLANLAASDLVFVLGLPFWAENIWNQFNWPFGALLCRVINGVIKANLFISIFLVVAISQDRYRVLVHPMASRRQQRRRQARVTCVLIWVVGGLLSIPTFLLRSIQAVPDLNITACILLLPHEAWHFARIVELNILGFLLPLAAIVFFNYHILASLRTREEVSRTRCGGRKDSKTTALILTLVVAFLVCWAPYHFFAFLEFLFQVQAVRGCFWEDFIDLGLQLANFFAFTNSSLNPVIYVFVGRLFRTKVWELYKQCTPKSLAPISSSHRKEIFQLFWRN

[3] = target: Voltage-dependent N-type calcium channel subunit alpha-1B (Rattus norvegicus, UniProt Q02294); format: functional
Voltage-dependent N-type calcium channel subunit alpha-1B, sequence (Q02294 whole entry): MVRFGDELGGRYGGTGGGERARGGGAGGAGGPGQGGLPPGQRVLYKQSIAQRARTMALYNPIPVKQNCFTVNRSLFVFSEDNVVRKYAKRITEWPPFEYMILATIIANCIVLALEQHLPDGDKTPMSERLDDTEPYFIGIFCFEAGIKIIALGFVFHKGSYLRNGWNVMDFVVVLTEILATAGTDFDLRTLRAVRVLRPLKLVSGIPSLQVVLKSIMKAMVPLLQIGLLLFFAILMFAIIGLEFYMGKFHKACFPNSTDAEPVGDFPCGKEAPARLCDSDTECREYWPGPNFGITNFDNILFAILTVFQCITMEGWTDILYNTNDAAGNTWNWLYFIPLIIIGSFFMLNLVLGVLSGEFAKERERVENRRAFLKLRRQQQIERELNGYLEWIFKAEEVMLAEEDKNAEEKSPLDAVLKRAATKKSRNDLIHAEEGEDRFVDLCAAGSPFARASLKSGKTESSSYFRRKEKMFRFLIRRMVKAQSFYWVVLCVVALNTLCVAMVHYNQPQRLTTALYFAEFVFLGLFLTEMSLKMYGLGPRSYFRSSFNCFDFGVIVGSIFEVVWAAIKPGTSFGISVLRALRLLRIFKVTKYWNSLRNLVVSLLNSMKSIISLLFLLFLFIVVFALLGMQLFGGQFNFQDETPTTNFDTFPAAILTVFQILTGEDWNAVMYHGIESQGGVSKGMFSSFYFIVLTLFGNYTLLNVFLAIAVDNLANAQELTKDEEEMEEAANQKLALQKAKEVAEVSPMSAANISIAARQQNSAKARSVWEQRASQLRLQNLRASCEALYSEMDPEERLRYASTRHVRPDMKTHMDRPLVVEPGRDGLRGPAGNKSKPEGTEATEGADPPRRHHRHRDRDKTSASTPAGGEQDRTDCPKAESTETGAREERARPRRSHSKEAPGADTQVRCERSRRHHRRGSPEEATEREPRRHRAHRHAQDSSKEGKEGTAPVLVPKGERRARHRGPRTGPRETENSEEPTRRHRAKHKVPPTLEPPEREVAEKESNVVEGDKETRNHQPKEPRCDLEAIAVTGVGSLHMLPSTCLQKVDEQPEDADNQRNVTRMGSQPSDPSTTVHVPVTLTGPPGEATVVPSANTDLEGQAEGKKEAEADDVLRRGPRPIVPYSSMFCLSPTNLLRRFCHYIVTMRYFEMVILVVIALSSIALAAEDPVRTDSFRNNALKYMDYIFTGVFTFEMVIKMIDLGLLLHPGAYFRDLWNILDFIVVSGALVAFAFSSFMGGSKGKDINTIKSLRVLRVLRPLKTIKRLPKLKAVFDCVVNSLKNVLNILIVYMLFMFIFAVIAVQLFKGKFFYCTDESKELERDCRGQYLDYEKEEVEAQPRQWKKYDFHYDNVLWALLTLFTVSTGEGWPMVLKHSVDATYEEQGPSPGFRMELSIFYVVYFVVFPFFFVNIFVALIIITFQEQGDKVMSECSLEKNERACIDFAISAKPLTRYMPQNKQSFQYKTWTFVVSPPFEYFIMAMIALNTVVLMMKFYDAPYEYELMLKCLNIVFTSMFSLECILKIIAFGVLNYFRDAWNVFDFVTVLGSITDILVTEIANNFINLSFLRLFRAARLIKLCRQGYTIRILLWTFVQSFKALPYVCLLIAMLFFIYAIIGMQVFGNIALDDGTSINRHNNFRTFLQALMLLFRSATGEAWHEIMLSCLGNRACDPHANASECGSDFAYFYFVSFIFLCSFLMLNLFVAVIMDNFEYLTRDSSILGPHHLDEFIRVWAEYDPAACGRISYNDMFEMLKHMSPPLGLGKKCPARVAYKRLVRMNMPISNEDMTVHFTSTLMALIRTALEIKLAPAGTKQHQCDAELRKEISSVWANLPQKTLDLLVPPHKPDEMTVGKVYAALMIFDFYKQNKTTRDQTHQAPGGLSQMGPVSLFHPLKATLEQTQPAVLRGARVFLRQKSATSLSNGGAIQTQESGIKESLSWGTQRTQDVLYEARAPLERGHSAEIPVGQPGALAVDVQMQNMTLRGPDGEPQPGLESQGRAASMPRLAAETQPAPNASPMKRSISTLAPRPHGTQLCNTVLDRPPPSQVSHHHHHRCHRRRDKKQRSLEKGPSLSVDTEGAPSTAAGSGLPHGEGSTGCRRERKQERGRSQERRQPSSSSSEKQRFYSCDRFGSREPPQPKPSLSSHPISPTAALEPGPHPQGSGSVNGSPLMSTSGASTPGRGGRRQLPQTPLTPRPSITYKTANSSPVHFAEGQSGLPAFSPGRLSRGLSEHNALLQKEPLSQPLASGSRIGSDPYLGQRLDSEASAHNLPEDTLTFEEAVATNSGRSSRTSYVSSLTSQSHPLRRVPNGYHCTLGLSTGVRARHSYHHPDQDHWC

[4] = target: T3, Endothelin receptor type B (Homo sapiens, UniProt P24530)
T3 sequence (P24530 whole entry): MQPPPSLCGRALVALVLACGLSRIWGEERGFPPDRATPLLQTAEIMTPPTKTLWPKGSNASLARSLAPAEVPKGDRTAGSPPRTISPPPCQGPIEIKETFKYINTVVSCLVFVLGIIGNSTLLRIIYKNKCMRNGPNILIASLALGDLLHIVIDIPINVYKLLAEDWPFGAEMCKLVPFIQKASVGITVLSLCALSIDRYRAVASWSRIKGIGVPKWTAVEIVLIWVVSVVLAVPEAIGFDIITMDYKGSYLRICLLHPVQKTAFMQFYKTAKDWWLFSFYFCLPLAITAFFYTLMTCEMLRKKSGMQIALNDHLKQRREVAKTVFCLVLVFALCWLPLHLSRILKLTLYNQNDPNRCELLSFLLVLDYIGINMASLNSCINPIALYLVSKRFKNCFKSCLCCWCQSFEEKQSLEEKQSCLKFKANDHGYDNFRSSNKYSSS

[5] = target: Glucagon receptor (Homo sapiens, UniProt P47871)
Glucagon receptor, sequence (P47871 whole entry): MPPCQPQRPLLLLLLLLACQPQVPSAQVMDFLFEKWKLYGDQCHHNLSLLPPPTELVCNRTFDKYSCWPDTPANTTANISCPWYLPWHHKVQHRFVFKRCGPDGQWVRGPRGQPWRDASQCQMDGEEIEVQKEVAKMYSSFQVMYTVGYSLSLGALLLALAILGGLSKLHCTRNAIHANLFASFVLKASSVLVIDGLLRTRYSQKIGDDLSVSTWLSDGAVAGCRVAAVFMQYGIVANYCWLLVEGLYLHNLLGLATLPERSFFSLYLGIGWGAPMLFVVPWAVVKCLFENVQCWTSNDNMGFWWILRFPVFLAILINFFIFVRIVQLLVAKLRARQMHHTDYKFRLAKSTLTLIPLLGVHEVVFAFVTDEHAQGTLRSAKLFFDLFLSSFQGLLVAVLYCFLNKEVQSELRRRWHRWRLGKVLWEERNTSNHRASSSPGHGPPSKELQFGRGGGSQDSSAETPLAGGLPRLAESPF

[6] = target: Histamine H2 receptor (Homo sapiens, UniProt P25021)
Histamine H2 receptor, sequence (P25021 whole entry): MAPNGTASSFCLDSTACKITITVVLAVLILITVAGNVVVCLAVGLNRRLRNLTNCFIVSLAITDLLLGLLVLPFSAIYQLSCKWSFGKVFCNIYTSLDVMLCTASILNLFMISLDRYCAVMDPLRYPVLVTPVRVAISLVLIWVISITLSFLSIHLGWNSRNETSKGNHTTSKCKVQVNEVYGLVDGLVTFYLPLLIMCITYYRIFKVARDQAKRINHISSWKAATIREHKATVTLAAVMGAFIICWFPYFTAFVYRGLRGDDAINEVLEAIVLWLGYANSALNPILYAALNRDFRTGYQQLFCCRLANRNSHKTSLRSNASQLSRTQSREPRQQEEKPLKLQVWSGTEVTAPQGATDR

[7] = target: T4, Neuropeptide Y receptor type 2 (Homo sapiens, UniProt P49146)
T4 sequence (P49146 whole entry): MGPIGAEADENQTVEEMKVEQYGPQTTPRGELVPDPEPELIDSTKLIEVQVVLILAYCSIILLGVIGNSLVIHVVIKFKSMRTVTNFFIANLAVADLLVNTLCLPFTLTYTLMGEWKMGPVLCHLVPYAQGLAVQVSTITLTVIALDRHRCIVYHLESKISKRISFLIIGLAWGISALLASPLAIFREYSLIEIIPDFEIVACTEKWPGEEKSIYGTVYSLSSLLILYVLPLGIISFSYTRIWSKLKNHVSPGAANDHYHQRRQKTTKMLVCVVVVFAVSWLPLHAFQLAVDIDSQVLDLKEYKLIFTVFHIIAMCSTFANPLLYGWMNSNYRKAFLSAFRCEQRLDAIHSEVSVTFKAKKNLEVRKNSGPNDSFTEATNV

[8] = target: Neurotensin receptor type 1 (Homo sapiens, UniProt P30989)
Neurotensin receptor type 1, sequence (P30989 whole entry): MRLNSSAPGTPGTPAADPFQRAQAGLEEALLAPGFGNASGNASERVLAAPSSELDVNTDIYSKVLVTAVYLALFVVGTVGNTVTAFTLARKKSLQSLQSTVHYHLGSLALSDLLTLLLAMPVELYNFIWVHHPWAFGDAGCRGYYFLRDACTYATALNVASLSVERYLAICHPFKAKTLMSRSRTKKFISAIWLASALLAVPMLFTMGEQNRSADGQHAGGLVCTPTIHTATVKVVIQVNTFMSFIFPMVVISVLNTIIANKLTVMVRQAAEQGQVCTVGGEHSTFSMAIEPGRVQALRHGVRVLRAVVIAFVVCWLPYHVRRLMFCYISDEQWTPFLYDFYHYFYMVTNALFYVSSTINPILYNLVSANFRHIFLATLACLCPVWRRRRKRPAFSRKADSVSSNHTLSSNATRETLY

[9] = target: T5, Alpha-2A adrenergic receptor (Homo sapiens, UniProt P08913)
T5 sequence (P08913 whole entry): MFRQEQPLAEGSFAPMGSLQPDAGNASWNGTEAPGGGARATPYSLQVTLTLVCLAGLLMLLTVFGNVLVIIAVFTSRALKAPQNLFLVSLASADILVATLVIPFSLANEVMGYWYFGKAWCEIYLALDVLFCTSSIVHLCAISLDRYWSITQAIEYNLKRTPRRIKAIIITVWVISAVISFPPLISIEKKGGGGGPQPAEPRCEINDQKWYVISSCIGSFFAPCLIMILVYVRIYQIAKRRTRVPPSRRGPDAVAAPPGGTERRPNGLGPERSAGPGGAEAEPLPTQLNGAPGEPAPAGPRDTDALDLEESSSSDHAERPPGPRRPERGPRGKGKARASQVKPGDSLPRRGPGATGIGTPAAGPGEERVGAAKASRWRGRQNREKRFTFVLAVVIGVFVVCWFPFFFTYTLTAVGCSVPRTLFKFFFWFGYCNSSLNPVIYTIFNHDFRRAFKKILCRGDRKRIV
Note: assay procedure not described here.

Compound	AC50 [1]	AC50 [2]	AC50 [3]	AC50 [4]	AC50 [5]	AC50 [6]	AC50 [7]	AC50 [8]	AC50 [9]
COc1ccc2c(c1)c(CC(=O)OCC(=O)O)c(C)n2C(=O)c1ccc(Cl)cc1 [ACEMETACIN]	> 30 µM								
COc1ccc2cccc(CCNC(C)=O)c2c1 [AGOMELATINE]		> 30 µM	> 10 µM	> 30 µM	> 30 µM	> 10 µM	> 30 µM	> 30 µM	> 10 µM
CN1CCc2cccc3c2[C@H]1Cc1ccc(O)c(O)c1-3 [APOMORPHINE]		> 30 µM	> 10 µM	> 30 µM	> 30 µM	> 10 µM	> 30 µM	> 30 µM	2.37 µM
CC(C)c1c(C(=O)Nc2ccccc2)c(-c2ccccc2)c(-c2ccc(F)cc2)n1CC[C@@H](O)C[C@@H](O)CC(=O)O [ATORVASTATIN]		> 30 µM	> 10 µM	> 30 µM	> 30 µM	> 10 µM	> 30 µM	> 30 µM	> 10 µM
NC(CO)C(=O)NNCc1ccc(O)c(O)c1O (stereo unspecified) [BENSERAZIDE]		> 30 µM	> 10 µM	> 30 µM	> 30 µM	> 10 µM	> 30 µM	> 30 µM	> 10 µM
CCCCN1CCCCC1C(=O)Nc1c(C)cccc1C (stereo unspecified) [BUPIVACAINE]	> 30 µM								
CCC(C(=O)O)c1ccc(CC(C)C)cc1 (stereo unspecified) [BUTIBUFEN]	> 30 µM								
CN(C)C(=O)OC1N=C(c2ccccc2)c2cc(Cl)ccc2N(C)C1=O (stereo unspecified) [CAMAZEPAM]		> 30 µM	> 10 µM	> 30 µM	> 30 µM	> 10 µM	> 30 µM	> 30 µM	> 10 µM
CCOc1cc(N)c([N+](=O)[O-])cc1C(=O)NC1CCN(CC2CC=CCC2)CC1 (stereo unspecified) [CINITAPRIDE]	> 30 µM								
CC(C)(Oc1ccc(C2CC2(Cl)Cl)cc1)C(=O)O (stereo unspecified) [CIPROFIBRATE]	> 30 µM								
COC(=O)[C@H]1[C@@H](OC(=O)c2ccccc2)C[C@@H]2CC[C@H]1N2C [COCAINE]	> 30 µM								
[H]/N=C(/N)c1ccc(NCc2nc3cc(C(=O)N(CCC(=O)O)c4ccccn4)ccc3n2C)cc1 [DABIGATRAN]	> 30 µM								
CN[C@@H](C)[C@H](O)c1ccccc1 [EPHEDRINE]		> 30 µM	> 10 µM	> 30 µM	> 30 µM	> 10 µM	> 30 µM	> 30 µM	> 10 µM
CCNC(C)Cc1cccc(C(F)(F)F)c1 (stereo unspecified) [FENFLURAMINE]		> 30 µM	> 10 µM	> 30 µM	> 30 µM		> 30 µM	> 30 µM	
C1=Cc2cccc(OCC3CNCCO3)c2C1 (stereo unspecified) [INDELOXAZINE]	> 30 µM								
CN1CC[C@]23CCCC[C@H]2[C@H]1Cc1ccc(O)cc13 [LEVORPHANOL]									19 µM

Compound	AC50 [1]	AC50 [2]	AC50 [3]	AC50 [4]	AC50 [5]	AC50 [6]	AC50 [7]	AC50 [8]	AC50 [9]
CCN1CCC[C@H]1CNC(=O)c1cc(S(N)(=O)=O)ccc1OC [LEVOSULPIRIDE]									> 10 µM
Cc1cc(-c2ccccc2)nnc1NCCN1CCOCC1 [MINAPRINE]		> 30 µM	> 10 µM	> 30 µM	> 30 µM	> 10 µM	> 30 µM	> 30 µM	> 10 µM
NC(=O)C[S+]([O-])C(c1ccccc1)c1ccccc1 (stereo unspecified) [MODAFINIL]		> 30 µM	> 10 µM	23.5 µM	> 30 µM	> 10 µM	> 30 µM	> 30 µM	> 10 µM
O=C(OCCN1CCOCC1)c1cccnc1Nc1cccc(C(F)(F)F)c1 [MORNIFLUMATE]	> 30 µM								
COc1c(C)c2c(c(O)c1C/C=C(\C)CCC(=O)OCCN1CCOCC1)C(=O)OC2 [MYCOPHENOLATE MOFETIL]	> 30 µM								
CCCCCCC(C)(C)c1cc(O)c2c(c1)OC(C)(C)C1CCC(=O)CC21 (stereo unspecified) [NABILONE]	> 30 µM								
O=C(O)CCCc1ccccc1 [PHENYLBUTANOIC ACID]		> 10 µM	> 10 µM	> 30 µM	> 30 µM		> 30 µM	> 30 µM	> 10 µM
CCN(CC)CCOC(=O)c1ccc(N)cc1 [PROCAINE]			> 10 µM						> 10 µM
Cc1nc2ccc(CN(C)c3ccc(C(=O)N[C@@H](CCC(=O)O)C(=O)O)s3)cc2c(=O)[nH]1 [RALTITREXED]	> 30 µM								
C1COC(NC(C2CC2)C2CC2)=N1 [RILMENIDINE]									3.49 µM
O=C1NCCN1CCN1CCC(c2cn(-c3ccc(F)cc3)c3ccc(Cl)cc23)CC1 [SERTINDOLE]	> 30 µM								
Cc1c(C(=O)Nc2ccc(N3C[C@@H](C)O[C@@H](C)C3)nc2)cccc1-c1ccc(OC(F)(F)F)cc1 [SONIDEGIB]		> 30 µM	> 10 µM	> 30 µM	> 30 µM	> 10 µM	> 30 µM	> 30 µM	> 10 µM
CC[C@]1(O)C[C@@H]2CN(CCc3c([nH]c4ccccc34)[C@@](C(=O)OC)(c3cc4c(cc3OC)N(C)[C@H]3[C@@](O)(C(N)=O)[C@H](O)[C@]5(CC)C=CCN6CC[C@]43[C@@H]65)C2)C1 [VINDESINE]	> 30 µM								
Cc1ccc(-c2nc3ccc(C)cn3c2CC(=O)N(C)C)cc1 [ZOLPIDEM]		> 30 µM	> 10 µM	> 30 µM	> 30 µM	> 10 µM	> 30 µM	> 30 µM	> 10 µM
CN1CCN(C(=O)OC2c3nccnc3C(=O)N2c2ccc(Cl)cn2)CC1 (stereo unspecified) [ZOPICLONE]		> 30 µM	> 10 µM	> 30 µM	> 30 µM	> 10 µM	> 30 µM	> 30 µM	> 10 µM
TOCOFERSOLAN	> 30 µM								
